Test results taken from patent US9884063B2, “Amido-substituted azole compounds” (Bayer Pharma Aktiengesellschaft, priority 2014, dated 2018).

Assays:
[1] = tested on: wildtype Wnt signaling cascade; assay: HEK293 TOP Assay (Super TopFlash luciferase reporter, Wnt-3a stimulated); format: cell-based; conditions: Homo sapiens, HEK293, 16 h
How it was run: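 HEK293 cells stably carrying Super TopFlash (TOP) or FOP reporter, stimulated with recombinant human Wnt-3a (2500–5 ng/ml, two-fold steps). Both lines incubated in parallel with compound from 50 μM to 15 nM (3.16-fold) in CAFTY buffer pH 7.4 with 2 mM Ca2+ and 0.01% BSA; selectivity judged TOP vs FOP.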

[2] = target: T1, TNKS2 (Homo sapiens, UniProt Q9H2K2); assay: Modified TNKS2 Assay 2 (auto-parsylation, [3H]-NAD+ SPA); format: biochemical; conditions: 6 nM TNKS2, 96 well
T1 sequence (Q9H2K2 1-1166): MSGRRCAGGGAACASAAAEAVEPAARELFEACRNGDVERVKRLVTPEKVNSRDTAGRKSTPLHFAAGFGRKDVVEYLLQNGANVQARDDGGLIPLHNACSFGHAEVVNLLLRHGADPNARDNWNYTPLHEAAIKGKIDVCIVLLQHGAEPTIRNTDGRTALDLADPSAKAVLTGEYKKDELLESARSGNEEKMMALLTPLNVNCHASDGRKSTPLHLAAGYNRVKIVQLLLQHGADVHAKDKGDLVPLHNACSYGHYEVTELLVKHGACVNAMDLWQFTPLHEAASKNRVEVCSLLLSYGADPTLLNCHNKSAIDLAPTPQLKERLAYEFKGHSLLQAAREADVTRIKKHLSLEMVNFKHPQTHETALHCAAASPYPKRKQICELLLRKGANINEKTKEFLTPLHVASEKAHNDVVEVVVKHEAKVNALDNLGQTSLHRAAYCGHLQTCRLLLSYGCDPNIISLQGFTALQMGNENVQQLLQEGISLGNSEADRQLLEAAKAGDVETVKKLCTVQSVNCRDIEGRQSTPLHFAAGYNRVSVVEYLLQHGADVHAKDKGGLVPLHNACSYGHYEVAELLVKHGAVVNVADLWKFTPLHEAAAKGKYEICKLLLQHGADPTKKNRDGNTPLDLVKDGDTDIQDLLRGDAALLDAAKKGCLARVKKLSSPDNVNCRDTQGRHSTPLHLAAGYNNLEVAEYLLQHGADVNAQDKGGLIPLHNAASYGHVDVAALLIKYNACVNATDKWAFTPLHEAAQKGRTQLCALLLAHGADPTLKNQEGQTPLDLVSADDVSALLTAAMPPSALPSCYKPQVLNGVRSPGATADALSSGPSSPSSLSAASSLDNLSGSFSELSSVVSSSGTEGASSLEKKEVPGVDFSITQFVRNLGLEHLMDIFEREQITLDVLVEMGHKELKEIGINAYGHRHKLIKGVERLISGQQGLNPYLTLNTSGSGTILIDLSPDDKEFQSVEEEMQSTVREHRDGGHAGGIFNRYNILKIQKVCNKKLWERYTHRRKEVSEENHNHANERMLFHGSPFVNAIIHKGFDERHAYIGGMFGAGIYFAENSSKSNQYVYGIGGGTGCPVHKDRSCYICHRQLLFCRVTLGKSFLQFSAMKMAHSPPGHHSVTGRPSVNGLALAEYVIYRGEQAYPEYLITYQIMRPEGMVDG
Experimental: The potency of selected compounds according to the invention was assessed applying an modified in vitro inhibition assay. Here, the TNKS2 catalyzed NAD^+-dependent ribosylation of the enzyme itself (auto-parsylation) was detected using [^3H]-NAD^+ as substrate and applying the scintillation proximity assay (SPA) method to detect tritium-labeled, parsylated TNKS2. The intensity of the readout signal is proportional to the incorporated [^3H]-NAD^+. Inhibition of TNKS2 leads to a decreased incorporation of [^3H]-NAD^+ and consequently to a lower readout signal intensity. The concentration of a test compound which inhibits the enzyme activity by 50% (corresponds to half of the normed readout signal intensity) is reported as IC50.
The assay was conducted in a 96 well MTP format with the identical TNKS2 enzyme sample and NAD^+ sample as in the histone ribosylation assay with the following modifications: TNKS2 enzyme sample was diluted with a modified assay buffer (50 mM MES pH 7.0, 1 mM DTT, 0.01% Triton X-100) to a final concentration of 6 nM TNKS2 and 10×NAD^+ solution was diluted with the modified assay buffer (s. above) to a final 0.445×NAD^+ solution doped with 100 Bq/ul [^3H]-NAD^+ [Catalog #NET443H050UC, Perkin Elmer, Waltham, Mass., USA]. Substrate solution (10 ul) was incubated with different test compound concentrations (2.5 ul in 10% DMSO in modified assay buffer) or control (2.5 ul 10% DMSO in modified assay buffer only) and enzyme (10 ul) over night at room temperature. Incorporated tritium was measured after addition of 50 ul SPA beads (1 mg/ml) [Catalog #RPNQ0095 20 mg/ml, Perkin Elmer, Waltham, Mass., USA; diluted 1:10 with Dulbecco's phosphate buffered saline, PBS Catalog #D8537, Sigma-Aldrich, Steinheim, Germany] and detection of the photon emission with a beta count plate reader [Wallac MicroBeta®, Perkin Elmer, Waltham, Mass., USA].

[3] = HEK293 TOP reporter cell line, Wnt-3a at EC50, 16 hours incubation, compound dilution series 50 μM to 15 nM
[4] = HEK293 TOP reporter cells, Wnt3a at EC50, 16 hours, luciferase

Compound | IC50 [1, 3] | IC50 [2] | IC50 [1, 4]
CN1CCN(CCNC(=O)c2[nH]cnc2C(=O)Nc2ccc(NC(=O)c3ccccc3Cl)cc2)CC1 [Example 160, N^4-{4-[(2-chlorobenzoyl)amino]phenyl}-N^5-[2-(4-methylpiperazin-1-yl)ethyl]-1H-imidazole-4,5-dicarboxamide] | 580 nM | 110 nM | 
CNC(=O)c1nc[nH]c1C(=O)Nc1ccc(NC(=O)c2ccc(O)cc2Cl)cc1 [Example 122, N^5-{4-[(2-chloro-4-hydroxybenzoyl)amino]phenyl}-N^4-methyl-1H-imidazole-4,5-dicarboxamide] | 280 nM | 530 nM | 
CNC(=O)c1nc[nH]c1C(=O)Nc1ccc(NC(=O)c2cccc(Cl)c2Cl)cc1 [Example 1, N^5-{4-[(2,3-dichlorobenzoyl)amino]phenyl}-N^4-methyl-1H-imidazole-4,5-dicarboxamide] | 1200 nM | 3300 nM | 1100 nM
CNC(=O)c1nc[nH]c1C(=O)Nc1ccc(NC(=O)c2ccccc2Cl)cc1 [Example 27, N^5-{4-[(2-chlorobenzoyl)amino]phenyl}-N^4-methyl-1H-imidazole-4,5-dicarboxamide] | 390 nM | 530 nM | 340 nM
O=C(Nc1ccc(NC(=O)c2nc[nH]c2C(=O)NCCN2CCCC2)cc1)c1ccc(F)cc1 [Example 176, N^4-{4-[(4-fluorobenzoyl)amino]phenyl}-N^5-[2-(pyrrolidin-1-yl)ethyl]-1H-imidazole-4,5-dicarboxamide] | 340 nM | 60 nM | 
CC1CCCCN1CCNC(=O)c1[nH]cnc1C(=O)Nc1ccc(NC(=O)c2ccc(F)cc2)cc1 (stereo not shown) [Example 169, N^4-{4-[(4-fluorobenzoyl)amino]phenyl}-N^5-[2-(2-methylpiperidin-1-yl)ethyl]-1H-imidazole-4,5-dicarboxamide] | 800 nM | 180 nM | 
O=C(NCCN1CCCCC1)c1nc[nH]c1C(=O)Nc1ccc(NC(=O)c2c(F)cc(F)cc2Cl)cc1 [Example 119, N^5-{4-[(2-chloro-4,6-difluorobenzoyl)amino]phenyl}-N^4-[2-(piperidin-1-yl)ethyl]-1H-imidazole-4,5-dicarboxamide] | 70 nM | 5 nM | 
CNC(=O)c1nc[nH]c1C(=O)Nc1ccc(NC(=O)c2cc(OCCN3CCN(C)CC3)ccc2Cl)cc1 [Example 124, N^5-[4-({2-chloro-5-[2-(4-methylpiperazin-1-yl)ethoxy]benzoyl}amino)phenyl]-N^4-methyl-1H-imidazole-4,5-dicarboxamide] | 50000 nM | > 10000 nM | 

Further lines, results first:

IC50 [1, 3] | IC50 [2] | IC50 [1, 4] | Compound
20 nM | 2 nM |  | O=C(Nc1ccc(NC(=O)c2nc[nH]c2C(=O)NCCN2CCCCC2)cc1)c1ccc(F)cc1Br [Example 216, N^4-{4-[(2-bromo-4-fluorobenzoyl)amino]phenyl}-N^5-[2-(piperidin-1-yl)ethyl]-1H-imidazole-4,5-dicarboxamide]
890 nM | 260 nM |  | O=C(Nc1ccc(NC(=O)c2nc[nH]c2C(=O)NCCCCN2CCCCC2)cc1)c1ccccc1Cl [Example 189, N^4-{4-[(2-chlorobenzoyl)amino]phenyl}-N^5-[4-(piperidin-1-yl)butyl]-1H-imidazole-4,5-dicarboxamide]
120 nM | 8 nM |  | CN(C)CCNC(=O)c1[nH]cnc1C(=O)Nc1ccc(NC(=O)c2ccc(F)cc2Br)cc1 [Example 217, N^4-{4-[(2-bromo-4-fluorobenzoyl)amino]phenyl}-N^5-[2-(dimethylamino)ethyl]-1H-imidazole-4,5-dicarboxamide]
170 nM | 90 nM |  | CNC(=O)c1nc[nH]c1C(=O)Nc1ccc(NC(=O)c2ccc(C)cc2Cl)cc1 [Example 244, N^5-{4-[(2-chloro-4-methylbenzoyl)amino]phenyl}-N^4-methyl-1H-imidazole-4,5-dicarboxamide]
920 nM | 220 nM |  | CCOc1ccc(C(=O)Nc2ccc(NC(=O)c3[nH]cnc3C(=O)NC)cc2)c(Cl)c1 [Example 250, N^5-{4-[(2-chloro-4-ethoxybenzoyl)amino]phenyl}-N^4-methyl-1H-imidazole-4,5-dicarboxamide]
